Experimental findings from PubChem BioAssay (NCI) are described below.

The structures appear in SMILES notation.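 96-well plates; 48 h exposure; 5 concentrations. Endpoints by linear interpolation between flanking doses. Not reached: highest tested concentration assigned. GI50 marks 50% less growth. At the TGI there is no net growth.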

Test systems include CAKI-1 renal; HCC-2998 colon; SK-MEL-5 melanoma; HCT-116 colon; RPMI-8226 leukemia; SK-MEL-2 melanoma; UACC-257 melanoma; OVCAR-3 ovarian; SF-268 CNS; RXF 393 renal.
What all share (test): inhibition of tumour cell growth, NCI panel, 48 h

Consider `CCCCCCCC(=O)OCC(=O)[C@]1(O)Cc2c(O)c3c(c(O)c2[C@@H](OC2CC(N)C(O)C(C)O2)C1)C(=O)c1c(OC)cccc1C3=O` (stereo not given in full), for which the GI50 is 0.558 µM with CAKI-1 renal, 0.137 µM with HCC-2998 colon, 0.0427 µM in the test with SK-MEL-5 melanoma and 0.0742 µM in the test with HCT-116 colon. For the same molecule, the TGI with CAKI-1 renal came out at 2.43 µM; in the test with HCC-2998 colon, 0.767 µM; in the test with SK-MEL-5 melanoma, 0.185 µM; in the test on HCT-116 colon it was 1.09 µM.
With `O=C(N/N=C/c1cc(Cl)cc(Cl)c1[O-])c1ccccc1.O=C(N/N=C/c1cc(Cl)cc(Cl)c1[O-])c1ccccc1.[Co+2]`, the GI50 with CAKI-1 renal was 21.7 µM; in the test on HCC-2998 colon, 40.7 µM; with RPMI-8226 leukemia, 13.4 µM; in the test with SK-MEL-2 melanoma, 26.5 µM; in the test on UACC-257 melanoma, 19.6 µM; in the test with SK-MEL-5 melanoma it was 29 µM. For the same molecule, the figures for the GI50 with OVCAR-3 ovarian and in the test on HCT-116 colon were 3.18 µM and 14.6 µM, respectively. Further, the TGI was greater than 100 µM with CAKI-1 renal; greater than 100 µM with HCC-2998 colon; greater than 100 µM with RPMI-8226 leukemia; greater than 100 µM with SK-MEL-2 melanoma; 76.3 µM in the test on UACC-257 melanoma; greater than 100 µM with SK-MEL-5 melanoma. Besides, the TGI in the test with OVCAR-3 ovarian and in the test on HCT-116 colon was greater than 100 µM in each case.
With `CC1=C(C)C2(O)C(=C(C)C1=O)/C(=C(/O)c1ccccc1)c1nc3ccccc3n12` (stereo not given), the GI50 was 35.7 µM in the test on SF-268 CNS; 17.3 µM in the test with CAKI-1 renal; 13.2 µM in the test with RPMI-8226 leukemia; 19.4 µM in the test on SK-MEL-2 melanoma; 16.5 µM in the test on UACC-257 melanoma; 15.3 µM with RXF 393 renal. The GI50 was 16.6 µM with SK-MEL-5 melanoma, 12.6 µM in the test on OVCAR-3 ovarian and 29.4 µM with HCT-116 colon. In addition, the TGI with SF-268 CNS was greater than 100 µM; in the test on CAKI-1 renal, 55.9 µM; with RPMI-8226 leukemia it was 33.2 µM; in the test on SK-MEL-2 melanoma, 40 µM; in the test with UACC-257 melanoma, 33.4 µM; in the test on RXF 393 renal it was 34.5 µM. For the same molecule, the TGI in the test on SK-MEL-5 melanoma was found to be 31.3 µM; in the test on OVCAR-3 ovarian, 38.6 µM; in the test with HCT-116 colon it was 72 µM.
As to `N#Cc1ccc2cc3c(cc2c1)OCO3`, the TGI with SF-268 CNS, with HCC-2998 colon, with RPMI-8226 leukemia, in the test on SK-MEL-2 melanoma, with RXF 393 renal and in the test on OVCAR-3 ovarian was greater than 100 µM in each case. This molecule also displayed a TGI with HCT-116 colon greater than 100 µM.
On to `COc1ccccc1NS(=O)(=O)c1ccc2oc(SC(C)C)nc2c1`, for which the GI50 in the test on SF-268 CNS is 29.5 µM; with CAKI-1 renal, 17 µM; in the test on HCC-2998 colon, 27 µM; in the test on RPMI-8226 leukemia it was 2.4 µM; with SK-MEL-2 melanoma, 15.6 µM; with UACC-257 melanoma it was 1.76 µM. In addition, the GI50 in the test with SK-MEL-5 melanoma is 3.99 µM; in the test on OVCAR-3 ovarian, 19.3 µM; with HCT-116 colon, 8.35 µM. In addition, the TGI in the test with SF-268 CNS is greater than 100 µM; in the test on CAKI-1 renal it was 68.9 µM; in the test with HCC-2998 colon it was 51.4 µM; in the test with RPMI-8226 leukemia it was 24.4 µM; in the test with SK-MEL-2 melanoma it was 61.5 µM; in the test on UACC-257 melanoma, 19.1 µM. Further, the values for the TGI in the test on SK-MEL-5 melanoma, in the test with OVCAR-3 ovarian and in the test on HCT-116 colon were 17.4 µM, 40.4 µM and greater than 100 µM, respectively.
For the molecule `C=C(C)C(=O)O[C@@H]1C/C(C)=C\[C@H](OC(C)=O)C[C@](C)(O)/C=C2/OC(=O)C(COC(C)=O)=C21`, the TGI turned out to be 0.99 µM in the test with CAKI-1 renal; 1.64 µM with HCC-2998 colon; 1.73 µM in the test with RPMI-8226 leukemia; 14.1 µM in the test on SK-MEL-2 melanoma; 3.62 µM in the test on UACC-257 melanoma; 8.4 µM in the test on SK-MEL-5 melanoma. The same molecule yielded a TGI in the test on HCT-116 colon of 1.7 µM.
For the molecule `C#COc1cccc(Nc2ncnc3cc(NC(=O)[C@H](C)Cl)ccc23)c1`, the GI50 was 4.3 µM with SF-268 CNS; 2.95 µM with CAKI-1 renal; 5.71 µM with HCC-2998 colon; 3.52 µM with RPMI-8226 leukemia; greater than 62.5 µM in the test with UACC-257 melanoma; 3.34 µM in the test on RXF 393 renal. Further, the figures for the GI50 in the test on SK-MEL-5 melanoma, in the test with OVCAR-3 ovarian and with HCT-116 colon were 1.39 µM, 2.17 µM and 2.23 µM, respectively. The TGI is greater than 62.5 µM in the test with SF-268 CNS; greater than 62.5 µM in the test with CAKI-1 renal; greater than 62.5 µM in the test on HCC-2998 colon; greater than 62.5 µM with RPMI-8226 leukemia; greater than 62.5 µM in the test with UACC-257 melanoma; 39.3 µM in the test on RXF 393 renal. Further, the TGI in the test on SK-MEL-5 melanoma is 3.54 µM; with OVCAR-3 ovarian it was greater than 62.5 µM; in the test on HCT-116 colon it was greater than 62.5 µM.
In the case of `COC1OC(C)C2OC(C)(C)OC2C1OC(C)=O` (stereo not given), the TGI in the test on SF-268 CNS, in the test on CAKI-1 renal, with HCC-2998 colon, in the test on RPMI-8226 leukemia, in the test with UACC-257 melanoma and with RXF 393 renal was greater than 100 µM each time. In addition, the TGI in the test on SK-MEL-5 melanoma, in the test on OVCAR-3 ovarian and in the test with HCT-116 colon was greater than 100 µM in each case.
With `CCCCCCCCCCCCCC(=O)CSCCNC(=O)CCNC(=O)[C@@H](O)C(C)(C)COP(=O)(O)OP(=O)(O)OCC1OC(n2cnc3c(N)ncnc32)C(O)C1OP(=O)(O)O` (stereo not given in full), the TGI in the test on SF-268 CNS was 47.7 µM; with HCC-2998 colon, 35.7 µM; in the test with SK-MEL-2 melanoma, 33.5 µM; with UACC-257 melanoma it was 36.1 µM; with RXF 393 renal, 42.3 µM; in the test on SK-MEL-5 melanoma, 34.5 µM. For the same molecule, the TGI with OVCAR-3 ovarian is greater than 100 µM; with HCT-116 colon, 30.1 µM.
As for `CCN(CC)CCn1[nH]c2c3ccc(=O)cc3sc3c(NCCN)ccc1c32`, the TGI in the test on SF-268 CNS was greater than 100 µM; in the test on CAKI-1 renal, 11.5 µM; in the test on RPMI-8226 leukemia, 1.97 µM; in the test on SK-MEL-2 melanoma, 2.69 µM; in the test with UACC-257 melanoma, 4.01 µM; in the test with RXF 393 renal it was 3.43 µM. The results for the TGI with SK-MEL-5 melanoma, with OVCAR-3 ovarian and with HCT-116 colon were 2.91 µM, 8.17 µM and 2.19 µM, respectively.
Turning to `O=C1c2ccccc2C(=O)c2c(NCC3CO3)ccc(NCC3CO3)c21` (stereo not given), the TGI is 7.79 µM with CAKI-1 renal; greater than 81.4 µM with HCC-2998 colon; 33.3 µM in the test on RPMI-8226 leukemia; 23.9 µM in the test on UACC-257 melanoma; 11.8 µM in the test on RXF 393 renal; 6.44 µM in the test on SK-MEL-5 melanoma. In addition, the results for the TGI in the test on OVCAR-3 ovarian and in the test on HCT-116 colon were 15.1 µM and 1.21 µM, respectively.
In the case of `S=C=NCCc1ccccc1`, the TGI turned out to be 3.65 µM in the test with SF-268 CNS; 1.54 µM with HCC-2998 colon; 2.04 µM in the test on RPMI-8226 leukemia; 0.928 µM with SK-MEL-2 melanoma; 2.75 µM with UACC-257 melanoma; 1.42 µM with RXF 393 renal. Besides, the results for the TGI with SK-MEL-5 melanoma, in the test on OVCAR-3 ovarian and with HCT-116 colon were 1.39 µM, 2.09 µM and 1.74 µM, respectively.
